Reference: patent publication US20220388964A1 (HiberCell, Inc., priority 2019, published 2022)

Biological target: GCN2 (Homo sapiens, UniProt Q9P2K8)
Assay: TR-FRET assay for inhibition of GCN2 (Example 107, for Examples 40-72)

Chain of GCN2 (Q9P2K8 whole entry): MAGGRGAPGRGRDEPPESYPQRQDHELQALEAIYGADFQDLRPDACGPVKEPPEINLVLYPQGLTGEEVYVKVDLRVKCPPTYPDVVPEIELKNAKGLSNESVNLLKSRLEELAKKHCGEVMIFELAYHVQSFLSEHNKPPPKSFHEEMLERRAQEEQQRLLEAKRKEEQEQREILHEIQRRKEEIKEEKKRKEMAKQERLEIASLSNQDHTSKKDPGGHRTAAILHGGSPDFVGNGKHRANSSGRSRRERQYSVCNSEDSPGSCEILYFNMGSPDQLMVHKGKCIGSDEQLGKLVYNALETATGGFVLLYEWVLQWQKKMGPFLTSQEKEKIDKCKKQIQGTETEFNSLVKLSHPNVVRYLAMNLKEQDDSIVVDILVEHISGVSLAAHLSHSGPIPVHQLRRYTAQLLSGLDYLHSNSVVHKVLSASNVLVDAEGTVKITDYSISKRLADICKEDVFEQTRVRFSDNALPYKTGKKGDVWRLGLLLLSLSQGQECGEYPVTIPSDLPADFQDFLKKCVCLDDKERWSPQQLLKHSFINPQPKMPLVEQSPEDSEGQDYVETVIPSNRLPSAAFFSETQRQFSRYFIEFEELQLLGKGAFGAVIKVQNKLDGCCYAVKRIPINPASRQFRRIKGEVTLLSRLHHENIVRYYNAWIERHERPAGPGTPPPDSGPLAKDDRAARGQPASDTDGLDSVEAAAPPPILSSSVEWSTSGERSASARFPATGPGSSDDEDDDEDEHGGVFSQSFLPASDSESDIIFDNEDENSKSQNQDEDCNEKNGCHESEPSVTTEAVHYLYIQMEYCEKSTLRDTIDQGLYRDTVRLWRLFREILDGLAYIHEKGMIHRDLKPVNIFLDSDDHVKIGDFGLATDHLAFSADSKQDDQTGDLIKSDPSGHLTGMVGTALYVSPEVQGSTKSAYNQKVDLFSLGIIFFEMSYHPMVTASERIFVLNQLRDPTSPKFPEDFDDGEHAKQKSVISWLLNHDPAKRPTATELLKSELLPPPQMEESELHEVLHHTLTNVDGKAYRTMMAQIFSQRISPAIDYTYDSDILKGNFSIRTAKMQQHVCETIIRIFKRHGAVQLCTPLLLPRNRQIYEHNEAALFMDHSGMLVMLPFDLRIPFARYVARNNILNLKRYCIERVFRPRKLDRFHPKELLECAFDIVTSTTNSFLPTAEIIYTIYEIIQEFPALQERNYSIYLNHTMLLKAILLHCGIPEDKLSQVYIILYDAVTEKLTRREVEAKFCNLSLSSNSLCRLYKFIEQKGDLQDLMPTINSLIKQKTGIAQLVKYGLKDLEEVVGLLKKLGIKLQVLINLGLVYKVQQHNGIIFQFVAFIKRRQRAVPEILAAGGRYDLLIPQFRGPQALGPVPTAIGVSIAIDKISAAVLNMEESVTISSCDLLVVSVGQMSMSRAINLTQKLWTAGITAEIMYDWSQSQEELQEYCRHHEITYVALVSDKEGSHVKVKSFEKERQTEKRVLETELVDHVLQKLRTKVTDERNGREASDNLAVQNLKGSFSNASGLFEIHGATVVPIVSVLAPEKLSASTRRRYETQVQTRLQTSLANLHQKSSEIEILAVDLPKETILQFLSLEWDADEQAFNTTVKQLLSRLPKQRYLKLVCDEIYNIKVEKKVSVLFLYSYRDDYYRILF

Row | SMILES | IC50
1 | CNC(=O)c1n[nH]c2c(F)c(-c3c(F)ccc(NS(=O)(=O)c4cccc(CO)c4)c3F)ccc12 [Example 41, 6-[2,6-Difluoro-3-[3-(hydroxymethyl)benzenesulfonamido]phenyl]-7-fluoro-N-methyl-1H-indazole-3-carboxamide] | 500 to 2500 nM
2 | CNC(=O)c1n[nH]c2c(F)c(-c3c(F)ccc(NS(=O)(=O)c4cc(F)cc(CO)c4)c3F)ccc12 [Example 42, 6-[2,6-difluoro-3-[3-fluoro-5-(hydroxymethyl)benzenesulfonamido]phenyl]-7-fluoro-N-methyl-1H-indazole-3-carboxamide] | < 500 nM
3 | COc1ncc(Cl)cc1S(=O)(=O)Nc1ccc(F)c(-c2ccc3c(NC(C)=O)n[nH]c3c2F)c1F [Example 44, N-(6-(3-(5-chloro-2-methoxypyridine-3-sulfonamido)-2,6-difluorophenyl)-7-fluoro-1H-indazol-3-yl)acetamide] | < 500 nM
4 | CNC(=O)c1n[nH]c2c(F)c(-c3c(F)ccc(NS(=O)(=O)c4cc(Cl)cnc4OC(F)F)c3F)ccc12 [Example 45, 6-[3-[5-chloro-2-(difluoromethoxy)pyridine-3-sulfonamido]-2,6-difluorophenyl]-7-fluoro-N-methyl-1H-indazole-3-carboxamide] | < 500 nM
5 | CNC(=O)c1n[nH]c2c(F)c(-c3c(F)ccc(NS(=O)(=O)c4cc(C#N)cnc4OC(F)F)c3F)ccc12 [Example 46, 6-[3-[5-Cyano-2-(difluoromethoxy)pyridine-3-sulfonamido]-2,6-difluorophenyl]-7-fluoro-N-methyl-1H-indazole-3-carboxamide] | < 500 nM
6 | CNC(=O)c1n[nH]c2c(F)c(-c3c(F)ccc(NS(=O)(=O)c4cc(Cl)cnc4OC)c3F)cc(C)c12 [Example 47, 6-[3-(5-chloro-2-methoxypyridine-3-sulfonamido)-2,6-difluorophenyl]-7-fluoro-N,4-dimethyl-1H-indazole-3-carboxamide] | < 500 nM
7 | COc1ncc(Cl)cc1S(=O)(=O)Nc1ccc(F)c(-c2ccc3c(C(=O)NCC(C)C)n[nH]c3c2F)c1F [Example 48, 6-[3-(5-Chloro-2-methoxypyridine-3-sulfonamido)-2,6-difluorophenyl]-7-fluoro-N-(2-methylpropyl)-1H-indazole-3-carboxamide] | < 500 nM
8 | CCNC(=O)c1n[nH]c2c(F)c(-c3c(F)ccc(NS(=O)(=O)c4cc(Cl)cnc4OC)c3F)ccc12 [Example 49, 6-(3-((5-Chloro-2-methoxypyridine)-3-sulfonamido)-2,6-difluorophenyl)-N-ethyl-7-fluoro-1H-indazole-3-carboxamide] | < 500 nM
9 | COc1ncc(Cl)cc1S(=O)(=O)Nc1ccc(F)c(-c2ccc3c(C(=O)NC4CCC(=O)N(C)C4)n[nH]c3c2F)c1F (stereo not shown) [Example 50, 6-[3-(5-Chloro-2-methoxypyridine-3-sulfonamido)-2,6-difluorophenyl]-7-fluoro-N-(1-methyl-6-oxopiperidin-3-yl)-1H-indazole-3-carboxamide] | < 500 nM
10 | COc1ncc(Cl)cc1S(=O)(=O)Nc1ccc(F)c(-c2ccc3c(C(=O)NC4CCN(C(C)=O)C4)n[nH]c3c2F)c1F (stereo not shown) [Example 51, N-(1-acetylpyrrolidin-3-yl)-6-[3-(5-chloro-2-methoxypyridine-3-sulfonamido)-2,6-difluorophenyl]-7-fluoro-1H-indazole-3-carboxamide] | < 500 nM
11 | COc1ncc(Cl)cc1S(=O)(=O)Nc1ccc(F)c(-c2ccc3c(C(=O)NCC(C)O)n[nH]c3c2F)c1F (stereo not shown) [Example 52, 6-[3-(5-Chloro-2-methoxypyridine-3-sulfonamido)-2,6-difluorophenyl]-7-fluoro-N-(2-hydroxypropyl)-1H-indazole-3-carboxamide] | < 500 nM
12 | COc1ncc(Cl)cc1S(=O)(=O)Nc1ccc(F)c(-c2ccc3c(C(=O)NC(C)CO)n[nH]c3c2F)c1F (stereo not shown) [Example 53, 6-[3-(5-Chloro-2-methoxypyridine-3-sulfonamido)-2,6-difluorophenyl]-7-fluoro-N-(1-hydroxypropan-2-yl)-1H-indazole-3-carboxamide] | < 500 nM
13 | COc1ncc(Cl)cc1S(=O)(=O)Nc1ccc(F)c(-c2ccc3c(C(=O)NC4CCNC4=O)n[nH]c3c2F)c1F (stereo not shown) [Example 54, 6-[3-(5-Chloro-2-methoxypyridine-3-sulfonamido)-2,6-difluorophenyl]-7-fluoro-N-(2-oxopyrrolidin-3-yl)-1H-indazole-3-carboxamide] | < 500 nM
14 | COc1ncc(Cl)cc1S(=O)(=O)Nc1ccc(F)c(-c2ccc3c(C(=O)NC4CCCOC4)n[nH]c3c2F)c1F (stereo not shown) [Example 55, 6-[3-(5-Chloro-2-methoxypyridine-3-sulfonamido)-2,6-difluorophenyl]-7-fluoro-N-(oxan-3-yl)-1H-indazole-3-carboxamide] | < 500 nM
15 | CCC(C)NC(=O)c1n[nH]c2c(F)c(-c3c(F)ccc(NS(=O)(=O)c4cc(Cl)cnc4OC)c3F)ccc12 (stereo not shown) [Example 56, 6-[3-(5-Chloro-2-methoxypyridine-3-sulfonamido)-2,6-difluorophenyl]-7-fluoro-N-(sec-butyl)-1H-indazole-3-carboxamide] | < 500 nM
16 | COc1ncc(Cl)cc1S(=O)(=O)Nc1ccc(F)c(-c2ccc3c(C(=O)NC4CCNC4)n[nH]c3c2F)c1F (stereo not shown) [Example 57, 6-[3-(5-Chloro-2-methoxypyridine-3-sulfonamido)-2,6-difluorophenyl]-7-fluoro-N-(pyrrolidin-3-yl)-1H-indazole-3-carboxamide] | < 500 nM

Row | SMILES | IC50
17 | CCCNC(=O)c1n[nH]c2c(F)c(-c3c(F)ccc(NS(=O)(=O)c4cc(Cl)cnc4OC)c3F)ccc12 [Example 58, 6-[3-(5-Chloro-2-methoxypyridine-3-sulfonamido)-2,6-difluorophenyl]-7-fluoro-N-propyl-1H-indazole-3-carboxamide] | < 500 nM
18 | CCCC(C)NC(=O)c1n[nH]c2c(F)c(-c3c(F)ccc(NS(=O)(=O)c4cc(Cl)cnc4OC)c3F)ccc12 (stereo not shown) [Example 59, 6-[3-(5-Chloro-2-methoxypyridine-3-sulfonamido)-2,6-difluorophenyl]-7-fluoro-N-(pentan-2-yl)-1H-indazole-3-carboxamide] | < 500 nM
19 | COc1ncc(Cl)cc1S(=O)(=O)Nc1ccc(F)c(-c2ccc3c(C(=O)NC(C)CCO)n[nH]c3c2F)c1F (stereo not shown) [Example 60, 6-[3-(5-chloro-2-methoxypyridine-3-sulfonamido)-2,6-difluorophenyl]-7-fluoro-N-(4-hydroxybutan-2-yl)-1H-indazole-3-carboxamide] | < 500 nM
20 | CNC(=O)c1n[nH]c2c(F)c(-c3c(F)ccc(NS(=O)(=O)c4cccc5occc45)c3F)ccc12 [Example 61, 6-[3-(1-Benzofuran-4-sulfonamido)-2,6-difluorophenyl]-7-fluoro-N-methyl-1H-indazole-3-carboxamide] | < 500 nM
21 | CNC(=O)c1n[nH]c2c(F)c(-c3c(F)ccc(NS(=O)(=O)c4cccc5[nH]cnc45)c3F)ccc12 [Example 62, 6-[3-(1H-1,3-Benzodiazole-4-sulfonamido)-2,6-difluorophenyl]-7-fluoro-N-methyl-1H-indazole-3-carboxamide] | 500 to 2500 nM
22 | CNC(=O)c1n[nH]c2c(F)c(-c3c(F)ccc(NS(=O)(=O)c4cccc5ncn(C)c45)c3F)ccc12 [Example 63, 6-[2,6-Difluoro-3-(3-methyl-1,3-benzodiazole-4-sulfonamido)phenyl]-7-fluoro-N-methyl-1H-indazole-3-carboxamide] | < 500 nM
23 | COc1ncc(Cl)cc1S(=O)(=O)Nc1ccc(F)c(-c2ccc3c(-c4ncco4)n[nH]c3c2F)c1F [Example 64, 5-chloro-N-[2,4-difluoro-3-[7-fluoro-3-(1,3-oxazol-2-yl)-1H-indazol-6-yl]phenyl]-2-methoxypyridine-3-sulfonamide] | < 500 nM
24 | CNC(=O)c1n[nH]c2c(F)c(-c3c(F)ccc(NS(=O)(=O)c4cc(F)cnc4C)c3F)ccc12 [Example 65, 6-[2,6-difluoro-3-(5-fluoro-2-methylpyridine-3-sulfonamido)phenyl]-7-fluoro-N-methyl-1H-indazole-3-carboxamide] | < 500 nM
25 | CNC(=O)c1n[nH]c2c(F)c(-c3c(F)ccc(NS(=O)(=O)c4cc(F)cnc4C)c3F)ncc12 [Example 66, 6-[2,6-Difluoro-3-(5-fluoro-2-methylpyridine-3-sulfonamido)phenyl]-7-fluoro-N-methyl-1H-pyrazolo[4,3-c]pyridine-3-carboxamide] | < 500 nM
26 | CNC(=O)c1n[nH]c2c(F)c(-c3c(F)ccc(NS(=O)(=O)c4cc(Cl)cnc4OC)c3F)ncc12 [Example 67, 6-[3-(5-Chloro-2-methoxypyridine-3-sulfonamido)-2,6-difluorophenyl]-7-fluoro-N-methyl-1H-pyrazolo[4,3-c]pyridine-3-carboxamide] | < 500 nM
27 | CNC(=O)c1n[nH]c2c(F)c(-c3c(F)ccc(NS(=O)(=O)c4ccc5ccoc5c4)c3F)ccc12 [Example 68] | 500 to 2500 nM
28 | CNC(=O)c1n[nH]c2c(F)c(-c3c(F)ccc(NS(=O)(=O)c4cccc5c4ncn5C)c3F)ccc12 [Example 69, 6-[2,6-Difluoro-3-(1-methyl-1,3-benzodiazole-4-sulfonamido)phenyl]-7-fluoro-N-methyl-1H-indazole-3-carboxamide] | 500 to 2500 nM
29 | CNC(=O)c1n[nH]c2c(F)c(-c3c(F)ccc(NS(=O)(=O)c4cc(F)cnc4OC)c3F)ncc12 [Example 70, 6-[2,6-Difluoro-3-(5-fluoro-2-methoxypyridine-3-sulfonamido)phenyl]-7-fluoro-N-methyl-1H-pyrazolo[4,3-c]pyridine-3-carboxamide] | < 500 nM
30 | CNC(=O)c1n[nH]c2c(F)c(-c3c(F)ccc(NS(=O)(=O)c4cc(C#N)cnc4OC)c3F)ncc12 [Example 71, 6-[3-(5-Cyano-2-methoxypyridine-3-sulfonamido)-2,6-difluorophenyl]-7-fluoro-N-methyl-1H-pyrazolo[4,3-c]pyridine-3-carboxamide] | < 500 nM
31 | CNC(=O)c1n[nH]c2c(F)c(-c3c(F)ccc(NS(=O)(=O)c4cc(Cl)cnc4C)c3F)ncc12 [Example 72, 6-[3-(5-Chloro-2-methylpyridine-3-sulfonamido)-2,6-difluorophenyl]-7-fluoro-N-methyl-1H-pyrazolo[4,3-c]pyridine-3-carboxamide] | < 500 nM
